pIC50: −log10 of the molar value.
Target: T1, human Histamine H3 receptor (hH3R) (Homo sapiens, UniProt Q9Y5N1)
T1 construct: expressed in transfected cells; host or cells: CHO cells (Chinese Hamster Ovary); membranes
Assay: GTPγS Binding Assay (antagonist activity, [35S]GTPγS, (R)-α-methyl histamine 30 nM)
Type: biochemical
Conditions: membranes from CHO cells expressing hH3R, 90 minutes at room temperature
Experimental: Guanosine 5′-O-(3-[^35S]thio)triphosphate [GTPγS] Binding Assay
A GTPγS binding assay can be used to investigate antagonist properties of compounds in CHO cells (Chinese Hamster Ovary) transfected with human Histamine H3 receptor (hH3R). Membranes from CHO cells expressing hH3R (10 μg/well) are diluted in GTPγS assay buffer (20 mM Hepes, 10 mM MgCl2, 100 mM NaCl, pH 7.4) and preincubated with saponine (3 μg/ml), GDP (10 μM) and PVT-WGA SPA beads (125 μg/well) (Amersham) for 30 minutes. To determine antagonist activity, (R)-α-methyl histamine (30 nM) is added in 96 well SPA plate with [^35S]GTPγS (0.2 nM) and various concentration of H3R antagonists. The GTPγS binding assay is started with addition of the mixture membrane/saponine/GDP and incubated for 90 minutes at room temperature. The amount of bound [^35S]GTPγS is determined by using the MicroBeta Trilux counter (PerkinElmer). The percentage of [^35S]GTPγS bound in each sample is calculated as a percentage of that bound control sample incubated in absence of H3 antagonist. Duplicate determinations are obtained for each concentration, and the data are analyzed using ExcelFit4 to obtain the IC50.

T1 sequence (Q9Y5N1 whole entry): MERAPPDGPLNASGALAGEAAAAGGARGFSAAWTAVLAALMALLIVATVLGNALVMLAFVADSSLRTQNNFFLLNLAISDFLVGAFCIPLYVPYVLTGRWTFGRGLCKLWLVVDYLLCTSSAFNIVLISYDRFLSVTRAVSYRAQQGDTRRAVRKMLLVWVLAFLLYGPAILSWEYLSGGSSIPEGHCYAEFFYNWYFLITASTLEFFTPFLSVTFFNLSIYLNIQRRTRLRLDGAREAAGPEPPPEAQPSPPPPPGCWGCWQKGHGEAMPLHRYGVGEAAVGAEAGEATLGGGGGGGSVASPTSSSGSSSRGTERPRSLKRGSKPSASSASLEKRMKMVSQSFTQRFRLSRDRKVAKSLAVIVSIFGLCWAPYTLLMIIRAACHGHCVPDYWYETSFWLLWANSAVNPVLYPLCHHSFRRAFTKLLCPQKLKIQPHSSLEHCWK

| pIC50 | Structure (SMILES) |
| --- | --- |
| 7.20 | CS(=O)(=O)N1CCC2(CC1)CC(C(=O)N1CCN(C3CCCC3)CC1)C2 [Example 58, (4-cyclopentylpiperazin-1-yl)(7-(methylsulfonyl)-7-azaspiro[3.5]nonan-2-yl)methanone] |
| 6.43 | C[C@H]1CN(C(=O)C2CC3(CCN(S(C)(=O)=O)CC3)C2)CCN1C1CCC1 [Example 59, ((S)-4-cyclobutyl-3-methylpiperazin-1-yl)(7-(methylsulfonyl)-7-azaspiro[3.5]nonan-2-yl)methanone] |
| 6.75 | CC(C)N1CCN(C(=O)C2CC3(CCN(S(C)(=O)=O)CC3)C2)C[C@H]1C [Example 60, ((R)-4-isopropyl-3-methylpiperazin-1-yl)(7-(methylsulfonyl)-7-azaspiro[3.5]nonan-2-yl)methanone] |
| 6.75 | CC(C)N1CCN(C(=O)C2CC3(CCN(S(C)(=O)=O)CC3)C2)C[C@@H]1C [Example 61, ((S)-4-isopropyl-3-methylpiperazin-1-yl)(7-(methylsulfonyl)-7-azaspiro[3.5]nonan-2-yl)methanone] |
| 8.37 | C[C@@H]1CN(C2CCC2)CCN1C(=O)C1CC2(CCN(S(C)(=O)=O)CC2)C1 [Example 62, ((R)-4-cyclobutyl-2-methylpiperazin-1-yl)(7-(methylsulfonyl)-7-azaspiro[3.5]nonan-2-yl)methanone] |
| 7.67 | C[C@H]1CN(C2CCC2)CCN1C(=O)C1CC2(CCN(S(C)(=O)=O)CC2)C1 [Example 63, ((S)-4-cyclobutyl-2-methylpiperazin-1-yl)(7-(methylsulfonyl)-7-azaspiro[3.5]nonan-2-yl)methanone] |
| 7.78 | N#Cc1cnccc1C(=O)N1CCC2(CC1)CC(C(=O)N1CCN(C3CCC3)CC1)C2 [Example 64, 4-(2-(4-cyclobutylpiperazine-1-carbonyl)-7-azaspiro[3.5]nonane-7-carbonyl)nicotinonitrile] |
| 7.29 | O=C(C1CC2(CCN(c3cnccn3)CC2)C1)N1CCN(C2CCC2)CC1 [Example 65, (4-cyclobutylpiperazin-1-yl)(7-(pyrazin-2-yl)-7-azaspiro[3.5]nonan-2-yl)methanone] |
| 8.00 | O=C(C1CC2(CCN(c3ccncc3)CC2)C1)N1CCN(C2CCC2)CC1 [Example 66, (4-cyclobutylpiperazin-1-yl)(7-(pyridin-4-yl)-7-azaspiro[3.5]nonan-2-yl)methanone] |
| 7.64 | O=C(C1CC2(CCN(c3cncnc3)CC2)C1)N1CCN(C2CCC2)CC1 [Example 67, (4-cyclobutylpiperazin-1-yl)(7-(pyrimidin-5-yl)-7-azaspiro[3.5]nonan-2-yl)methanone] |
